Measurements reported in patent US11897865B2, “ABHD12 inhibitors and methods of making and using same” (THE SCRIPPS RESEARCH INSTITUTE, priority 2018, dated 2024).

Target: T1, ABHD12 (Mus musculus, UniProt Q99LR1)
T1 construct: from tissue; host or cells: brain membrane proteome
T1 sequence (Q99LR1 1-398): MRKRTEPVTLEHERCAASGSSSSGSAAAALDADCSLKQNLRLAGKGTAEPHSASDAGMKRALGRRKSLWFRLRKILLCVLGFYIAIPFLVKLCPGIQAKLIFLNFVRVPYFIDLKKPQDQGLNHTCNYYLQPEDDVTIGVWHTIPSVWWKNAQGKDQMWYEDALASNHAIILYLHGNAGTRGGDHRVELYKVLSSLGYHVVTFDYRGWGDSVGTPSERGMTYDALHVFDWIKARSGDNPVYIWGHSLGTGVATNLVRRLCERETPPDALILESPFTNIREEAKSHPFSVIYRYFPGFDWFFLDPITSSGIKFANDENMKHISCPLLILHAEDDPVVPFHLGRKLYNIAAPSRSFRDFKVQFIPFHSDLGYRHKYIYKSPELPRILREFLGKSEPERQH
Assay: Gel-based competitive ABPP, JJH350 probe vs brain membrane proteome
Assay type: biochemical
Conditions: for inhibition at 10 µM: 10 μM compound, read-out: % Inhibition @ 10 μM (ABPP gel_JJH350 probe vs brain mem); for IC50: read-out: IC50 (ABPP gel_JJH350 probe vs brain mem)
Procedure: Gel-Based Competitive ABPP for In Vitro Inhibitor Treatment of Proteomes:
Gel-based ABPP assays were performed as previously reported (Bachovchin, D. A. et al. Superfamily-wide portrait of serine hydrolase inhibition achieved by library-versus-library screening. Proc. Natl. Acad. Sci. U. S. A. 2010, 107, 20941-20946). Cell or tissue proteomes (50 μL, 1 mg/mL) were treated with either FP-Rh (1 μM final concentration) or JJH350 (2 μM final concentration) for 45 min at 37° C. For FP-Rh labeled samples, the reactions were quenched by adding 20 μL of 4× SDS-PAGE loading buffer. The 30 μL of the quenched samples were loaded on gel for analysis. For (S)-1,3-dioxo-7-(4-phenoxybenzoyl)hexahydroimidazo[1,5-a]pyrazin-2(3H)-yl 4-(4-(prop-2-yn-1-yloxy)phenyl)piperazine-1-carboxylate (JJH350)-labeled samples, copper-catalyzed azide-alkyne cycloaddition (CuAAC) was used for visualizing the labeled proteins following the reported protocol. Briefly, rhodamine-PEG3-N3 (1 μL/reaction, 1.25 mM in DMSO), CuSO4 (1 μL/reaction, 50 mM in H2O), TBTA (3 μL/reaction, 1.7 mM in DMSO/t-BuOH [1:4, v/v]) and tris(2-carboxyethyi)phosphine (TCEP) (1 μL/reaction, 50 mM in H2O, freshly prepared) were premixed. 6 μL of this click reagent mixture was immediately added to each JJH350-labeled samples (50 μL, 1 mg/mL) and incubated for 1 h at room temperature. The reactions were quenched by adding 20 μL of 4× SDS-PAGE loading buffer. The 40 μL of the quenched samples were loaded on a gel for analysis.
After separation by SDS-PAGE (10% acrylamide), samples were visualized by in-gel fluorescence scanning using the ChemiDoc MP system (Bio-Rad). Band intensities were quantified using the Image Lab (5.2.1) software (Bio-Rad).

inhibition at 10 µM [%] | IC50 [nM] | SMILES
≥ 75 | – | FC(F)(F)Oc1cccc(Oc2ccnc(N3CCC(NC(=S)Nc4cccnc4)CC3)c2)c1 [Example 49, 1-(Pyridin-3-yl)-3-(1-(4-(3-(trifluoromethoxy)phenoxy)pyridin-2-yl)piperidin-4-yl)thiourea]
≥ 75 | – | FC(F)(F)Oc1ccccc1Oc1ccnc(N2CCC(NC(=S)Nc3cccnc3)CC2)c1 [Example 50, 1-(Pyridin-3-yl)-3-(1-(4-(2-(trifluoromethoxy)phenoxy)pyridin-2-yl)piperidin-4-yl)thiourea]
≥ 75 | – | FC(F)(F)c1cccc(Oc2ccnc(N3CCC(NC(=S)Nc4cccnc4)CC3)c2)c1 [Example 52, 1-(Pyridin-3-yl)-3-(1-(4-(3-(trifluoromethyl)phenoxy)pyridin-2-yl)piperidin-4-yl)thiourea]
≥ 75 | – | FC(F)(F)c1ccccc1Oc1ccnc(N2CCC(NC(=S)Nc3cccnc3)CC2)c1 [Example 53, 1-(Pyridin-3-yl)-3-(1-(4-(2-(trifluoromethyl)phenoxy)pyridin-2-yl)piperidin-4-yl)thiourea]
≥ 75 | – | FC(F)(F)Oc1ccc(Oc2ccnc(N3CCC(NC(=S)Nc4cccnc4)CC3)c2)c(Cl)c1 [Example 55, 1-(1-(4-(2-Chloro-4-(trifluoromethoxy)phenoxy)pyridin-2-yl)piperidin-4-yl)-3-(pyridin-3-yl)thiourea]
≥ 75 | – | Fc1cc(Oc2ccnc(N3CCC(NC(=S)Nc4cccnc4)CC3)c2)ccc1OC(F)(F)F [Example 56, 1-(1-(4-(3-Fluoro-4-(trifluoromethoxy)phenoxy)pyridin-2-yl)piperidin-4-yl)-3-(pyridin-3-yl)thiourea]
≥ 75 | – | Fc1ccc(OC(F)(F)F)cc1Oc1ccnc(N2CCC(NC(=S)Nc3cccnc3)CC2)c1 [Example 58, 1-(1-(4-(2-Fluoro-5-(trifluoromethoxy)phenoxy)pyridin-2-yl)piperidin-4-yl)-3-(pyridin-3-yl)thiourea]
0 to 25 | – | FC(F)(F)Oc1ccc(Oc2cc(N3CCC(NC(=S)Nc4cccnc4)CC3)nc(C(F)(F)F)c2)cc1 [Example 60, 1-(Pyridin-3-yl)-3-(1-(4-(4-(trifluoromethoxy)phenoxy)-6-(trifluoromethyl)pyridin-2-yl)piperidin-4-yl)thiourea]
≥ 75 | – | CCCCCc1ccc(Oc2ccnc(N3CCC(NC(=S)Nc4cccnc4)CC3)c2)cc1 [Example 61, 1-(1-(4-(4-Pentylphenoxy)pyridin-2-yl)piperidin-4-yl)-3-(pyridin-3-yl)thiourea]
≥ 75 | – | FC(F)Oc1ccc(Oc2ccnc(N3CCC(NC(=S)Nc4cccnc4)CC3)c2)cc1 [Example 62, 1-(1-(4-(4-(Difluoromethoxy)phenoxy)pyridin-2-yl)piperidin-4-yl)-3-(pyridin-3-yl)thiourea]
– | ≤ 100 | FC(F)(F)Oc1cc(Oc2ccnc(N3CCC(NC(=S)Nc4cccnc4)CC3)c2Cl)ccc1Cl [Example 63, 1-(1-(3-Chloro-4-(4-chloro-3-(trifluoromethoxy)phenoxy)pyridin-2-yl)piperidin-4-yl)-3-(pyridin-3-yl)thiourea]
– | ≤ 100 | Fc1cc(Oc2ccnc(N3CCC(NC(=S)Nc4cccnc4)CC3)c2Cl)ccc1OC(F)(F)F [Example 64, 1-(1-(3-Chloro-4-(3-fluoro-4-(trifluoromethoxy)phenoxy)pyridin-2-yl)piperidin-4-yl)-3-(pyridin-3-yl)thiourea]
– | ≤ 100 | Fc1ccc(Oc2ccnc(N3CCC(NC(=S)Nc4cccnc4)CC3)c2Cl)cc1OC(F)(F)F [Example 68, 1-(1-(3-Chloro-4-(4-fluoro-3-(trifluoromethoxy)phenoxy)pyridin-2-yl)piperidin-4-yl)-3-(pyridin-3-yl)thiourea]
– | 100 to 1000 | Cc1cc(F)ccc1Oc1ccnc(N2CCC(NC(=S)Nc3cccnc3)CC2)c1Cl [Example 69, 1-(1-(3-Chloro-4-(4-fluoro-2-methylphenoxy)pyridin-2-yl)piperidin-4-yl)-3-(pyridin-3-yl)thiourea]
– | 100 to 1000 | Cc1cc(Oc2ccnc(N3CCC(NC(=S)Nc4cccnc4)CC3)c2Cl)ccc1F [Example 70, 1-(1-(3-Chloro-4-(4-fluoro-3-methylphenoxy)pyridin-2-yl)piperidin-4-yl)-3-(pyridin-3-yl)thiourea]
– | ≤ 100 | Cc1cc(OC(F)(F)F)ccc1Oc1ccnc(N2CCC(NC(=S)Nc3cccnc3)CC2)c1Cl [Example 73, 1-(1-(3-Chloro-4-(2-methyl-4-(trifluoromethoxy)phenoxy)pyridin-2-yl)piperidin-4-yl)-3-(pyridin-3-yl)thiourea]
– | 1000 to 25000 | Cc1ccc(Oc2ccnc(N3CCC(NC(=S)Nc4cccnc4)CC3)c2)cc1 [Example 75, 1-(Pyridin-3-yl)-3-(1-(4-(p-tolyloxy)pyridin-2-yl)piperidin-4-yl)thiourea]
25 to 50 | 1000 to 25000 | CC(=O)c1ccnc(N2CCC(NC(=S)Nc3cccnc3)CC2)c1 [Example 76, 1-(1-(4-Acetylpyridin-2-yl)piperidin-4-yl)-3-(pyridin-3-yl)thiourea]
25 to 50 | – | O=C(Nc1cccnc1)NC1CCN(c2ncc(C(F)(F)F)cc2Cl)CC1 [Example 77, 1-(1-(3-Chloro-5-(trifluoromethyl)pyridin-2-yl)piperidin-4-yl)-3-(pyridin-3-yl)urea]
50 to 75 | – | FC(F)(F)c1cnc(N2CCC(NC(=S)Nc3cccnc3)CC2)nc1 [Example 78, 1-(Pyridin-3-yl)-3-(1-(5-(trifluoromethyl)pyrimidin-2-yl)piperidin-4-yl)thiourea]
0 to 25 | – | FC(F)(F)c1ccc(N2CCC(NC(=S)Nc3cccnc3)CC2)nn1 [Example 79, 1-(Pyridin-3-yl)-3-(1-(6-(trifluoromethyl)pyridazin-3-yl)piperidin-4-yl)thiourea]
50 to 75 | – | FC(F)(F)c1cnc(N2CCCC(NC(=S)Nc3cccnc3)CC2)c(Cl)c1 (stereo not shown) [Example 80, 1-(1-(3-Chloro-5-(trifluoromethyl)pyridin-2-yl)azepan-4-yl)-3-(pyridin-3-yl)thiourea]
≥ 75 | – | FC(F)(F)c1cnc(NCCCCCNC(=S)Nc2cccnc2)c(Cl)c1 [Example 81, 1-(5-((3-Chloro-5-(trifluoromethyl)pyridin-2-yl)amino)pentyl)-3-(pyridin-3-yl)thiourea]
50 to 75 | – | CN(C(=S)Nc1cccnc1)C1CCN(c2ncc(C(F)(F)F)cc2Cl)CC1 [Example 82, 1-(1-(3-Chloro-5-(trifluoromethyl)pyridin-2-yl)piperidin-4-yl)-1-methyl-3-(pyridin-3-yl)thiourea]
25 to 50 | – | FC(F)(F)c1cnc(NCCCCNC(=S)Nc2cccnc2)c(Cl)c1 [Example 83, 1-(4-((3-Chloro-5-(trifluoromethyl)pyridin-2-yl)amino)butyl)-3-(pyridin-3-yl)thiourea]
50 to 75 | – | FC(F)(F)c1cnc(NCCCCCCNC(=S)Nc2cccnc2)c(Cl)c1 [Example 84, 1-(6-((3-Chloro-5-(trifluoromethyl)pyridin-2-yl)amino)hexyl)-3-(pyridin-3-yl)thiourea]

SMILES | inhibition at 10 µM [%] | IC50 [nM]
FC(F)(F)c1cnc(N2[C@@H]3CC[C@H]2CC(NC(=S)Nc2cccnc2)C3)c(Cl)c1 (stereo partly drawn) [Example 85, 1-((1R,5S)-8-(3-Chloro-5-(trifluoromethyl)pyridin-2-yl)-8-azabicyclo[3.2.1]octan-3-yl)-3-(pyridin-3-yl)thiourea] | 50 to 75 | –
